Target: crotoxin complex (1:1 complex of crotoxin A and crotoxin B) from Crotalus durissus terrificus venom (Crotalus durissus terrificus, UniProt P0CAS2)
Type: biochemical

crotoxin complex (1:1 complex of crotoxin A and crotoxin B) from Crotalus durissus terrificus venom, sequence (P0CAS2 whole entry, looked up, one chain of several): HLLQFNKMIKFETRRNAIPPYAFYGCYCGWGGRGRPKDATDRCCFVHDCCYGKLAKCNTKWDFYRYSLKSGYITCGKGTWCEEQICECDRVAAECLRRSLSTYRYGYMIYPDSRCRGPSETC

O=C(CBr)c1ccc(Br)cc1 [p-bromophenacylbromide]
reaction with p-bromophenacyl bromide: does not react
